Results reported in PMC8765048 (JCI Insight, 2022).

What was measured:
Assay in all cases: microbe, parasite or virus in culture
Assay type in all cases: cell-based
SARS-CoV-2 variants [1] = settings: Severe acute respiratory syndrome coronavirus 2, Calu-3
SARS-CoV-2 variants [2] = settings: Severe acute respiratory syndrome coronavirus 2, Vero C1008
SARS-CoV-2 = settings: Severe acute respiratory syndrome coronavirus 2; read-out: IC50 values against all viral variants and in all examined cell types

SMILES | IC50 (SARS-CoV-2 variants [1]) | IC90 (SARS-CoV-2 variants [1]) | IC50 (SARS-CoV-2 variants [2]) | IC90 (SARS-CoV-2 variants [2]) | IC50 (SARS-CoV-2)
CCC(CC)COC(=O)[C@H](C)N[P@](=O)(OC[C@H]1O[C@@](C#N)(c2ccc3c(N)ncnn23)[C@H](O)[C@@H]1O)Oc1ccccc1 [Remdesivir, remdesivir, reference compound] | 2290 ± 449 nM | 7200 ± 1000 nM | 2100 ± 516 nM | 4450 ± 829 nM | 
NC(=O)c1cn([C@@H]2O[C@H](CO)[C@@H](O)[C@H]2O)c2ncnc(N)c12 [Sangivamycin, sangivamycin] | 64.3 ± 4.7 nM | 255 ± 46.1 nM | 42 ± 8.8 nM | 220 ± 42.1 nM | 14 to 82 nM
